Results: ChEMBL document CHEMBL4311942, “Design of Trp-Rich Dodecapeptides with Broad-Spectrum Antimicrobial Potency and Membrane-Disruptive Mechanism” (J Med Chem, 2019)
In brackets after ≈: the same amount, converted by molar mass. Where a SMILES comes first, the peptide text is derived from it.

Columns and labels:
[1] = Therapeutic index, ratio of MHC for human RBC to geometric mean of peptide MIC for Escherichia coli ATCC 25922; type: toxicity; settings: pooled result: one value given for 6 cell lines, strains, targets or settings, read-out: TI
Escherichia coli [2] = assay: Antibacterial activity against Escherichia coli ATCC 25922 incubated for 18 to 24 hrs by broth microdilution method; type: functional
Erythrocyte = assay: Haemolytic activity in human erythrocytes assessed as lowest concentration causing 5% hemolysis after 1 hr; type: ADME, cell-based
Escherichia coli [3] = assay: Antibacterial activity against Escherichia coli UB1005 incubated for 18 to 24 hrs by broth microdilution method; type: functional
Staphylococcus aureus [4] = assay: Antibacterial activity against Staphylococcus aureus ATCC 29213 incubated for 18 to 24 hrs by broth microdilution method; type: functional
Escherichia coli [5] = assay: Antibacterial activity against Escherichia coli 20411 clinical isolate incubated for 18 to 24 hrs by broth microdilution method; type: functional
[6] = tested on: Staphylococcus epidermidis; assay: Antibacterial activity against Staphylococcus epidermidis ATCC 12228 incubated for 18 to 24 hrs by broth microdilution method; type: functional
Acinetobacter baumannii [7] = assay: Antibacterial activity against Acinetobacter baumannii AB1901 clinical isolate incubated for 18 to 24 hrs by broth microdilution method; type: functional
Salmonella typhimurium = assay: Antibacterial activity against Salmonella enterica serovar typhimurium C77-31 incubated for 18 to 24 hrs by broth microdilution method; type: functional, Salmonella enterica subsp. enterica serovar Typhimurium
Pseudomonas aeruginosa = assay: Antibacterial activity against Pseudomonas aeruginosa 25349 clinical isolate incubated for 18 to 24 hrs by broth microdilution method; type: functional
Staphylococcus aureus [8] = assay: Antibacterial activity against Staphylococcus aureus 11011 incubated for 18 to 24 hrs by broth microdilution method; type: functional
Acinetobacter baumannii [9] = assay: Antibacterial activity against Acinetobacter baumannii AB1902 clinical isolate incubated for 18 to 24 hrs by broth microdilution method; type: functional
[10] = Cytotoxicity against mouse RAW264.7 cells assessed as cell survival at < 32 uM after 24 hrs by MTT assay; type: cell-based; settings: read-out: Activity
Staphylococcus aureus [11] = assay: Antibacterial activity against Staphylococcus aureus ATCC 25923 incubated for 18 to 24 hrs by broth microdilution method; type: functional

Compound	selectivity ratio [1]	MIC (Escherichia coli [2])	MHC (Erythrocyte)	MIC (Escherichia coli [3])	MIC (Staphylococcus aureus [4])	MIC (Escherichia coli [5])	MIC [6]	MIC (Acinetobacter baumannii [7])	MIC (Salmonella typhimurium)	MIC (Pseudomonas aeruginosa)	MIC (Staphylococcus aureus [8])	MIC (Acinetobacter baumannii [9])	viability at 24 h [10]	MIC (Staphylococcus aureus [11])
CC[C@H](C)[C@H](NC(=O)[C@H](CCCCN)NC(=O)[C@H](Cc1c[nH]c2ccccc12)NC(=O)[C@H](CCCCN)NC(=O)[C@@H](NC(=O)[C@H](CCCCN)NC(=O)[C@H](Cc1c[nH]c2ccccc12)NC(=O)[C@H](CCCCN)NC(=O)[C@@H](NC(=O)[C@H](CCCCN)NC(=O)[C@@H](N)Cc1c[nH]c2ccccc12)[C@@H](C)CC)[C@@H](C)CC)C(=O)N[C@@H](CCCCN)C(N)=O (H-WKIKWKIKWKIK-NH2)	32	2 µM (≈ 3.37 µg/mL)	64 µM	2 µM (≈ 3.37 µg/mL)	2 µM (≈ 3.37 µg/mL)	2 µM (≈ 3.37 µg/mL)	2 µM (≈ 3.37 µg/mL)	1 µM (≈ 1.68 µg/mL)	2 µM (≈ 3.37 µg/mL)	4 µM (≈ 6.74 µg/mL)	2 µM (≈ 3.37 µg/mL)	2 µM (≈ 3.37 µg/mL)	> 90%	2 µM (≈ 3.37 µg/mL)
CC(C)C[C@H](NC(=O)[C@H](CCCCN)NC(=O)[C@H](Cc1c[nH]c2ccccc12)NC(=O)[C@H](CCCCN)NC(=O)[C@H](CC(C)C)NC(=O)[C@H](CCCCN)NC(=O)[C@H](Cc1c[nH]c2ccccc12)NC(=O)[C@H](CCCCN)NC(=O)[C@H](CC(C)C)NC(=O)[C@H](CCCCN)NC(=O)[C@@H](N)Cc1c[nH]c2ccccc12)C(=O)N[C@@H](CCCCN)C(N)=O (H-WKLKWKLKWKLK-NH2)	50.8	4 µM (≈ 6.74 µg/mL)	128 µM	4 µM (≈ 6.74 µg/mL)	2 µM (≈ 3.37 µg/mL)	2 µM (≈ 3.37 µg/mL)	2 µM (≈ 3.37 µg/mL)	2 µM (≈ 3.37 µg/mL)	2 µM (≈ 3.37 µg/mL)	4 µM (≈ 6.74 µg/mL)	2 µM (≈ 3.37 µg/mL)	4 µM (≈ 6.74 µg/mL)	> 90%	2 µM (≈ 3.37 µg/mL)
CC(C)[C@H](NC(=O)[C@H](CCCCN)NC(=O)[C@H](Cc1c[nH]c2ccccc12)NC(=O)[C@H](CCCCN)NC(=O)[C@@H](NC(=O)[C@H](CCCCN)NC(=O)[C@H](Cc1c[nH]c2ccccc12)NC(=O)[C@H](CCCCN)NC(=O)[C@@H](NC(=O)[C@H](CCCCN)NC(=O)[C@@H](N)Cc1c[nH]c2ccccc12)C(C)C)C(C)C)C(=O)N[C@@H](CCCCN)C(N)=O (H-WKVKWKVKWKVK-NH2)	144	2 µM (≈ 3.28 µg/mL)	> 128 µM	2 µM (≈ 3.28 µg/mL)	1 µM (≈ 1.64 µg/mL)	1 µM (≈ 1.64 µg/mL)	2 µM (≈ 3.28 µg/mL)	2 µM (≈ 3.28 µg/mL)	2 µM (≈ 3.28 µg/mL)	4 µM (≈ 6.57 µg/mL)	2 µM (≈ 3.28 µg/mL)	1 µM (≈ 1.64 µg/mL)	> 90%	2 µM (≈ 3.28 µg/mL)
C[C@@H](O)[C@H](NC(=O)[C@H](CCCCN)NC(=O)[C@H](Cc1c[nH]c2ccccc12)NC(=O)[C@H](CCCNC(=N)N)NC(=O)[C@H](Cc1ccccc1)NC(=O)[C@H](CCCNC(=N)N)NC(=O)[C@@H](N)Cc1c[nH]c2ccccc12)C(=O)N[C@@H](CCCNC(=N)N)C(=O)N[C@@H](Cc1c[nH]c2ccccc12)C(=O)N[C@@H](CCCNC(=N)N)C(=O)N[C@@H](Cc1ccccc1)C(=O)N[C@@H](CCCCN)C(N)=O (H-WRFRWKTRWRFK-NH2)	102	4 µM (≈ 7.41 µg/mL)	> 128 µM	4 µM (≈ 7.41 µg/mL)	2 µM (≈ 3.7 µg/mL)	2 µM (≈ 3.7 µg/mL)	2 µM (≈ 3.7 µg/mL)	2 µM (≈ 3.7 µg/mL)	2 µM (≈ 3.7 µg/mL)	8 µM (≈ 14.8 µg/mL)	2 µM (≈ 3.7 µg/mL)	4 µM (≈ 7.41 µg/mL)	> 90%	2 µM (≈ 3.7 µg/mL)
N=C(N)NCCC[C@H](NC(=O)[C@H](Cc1ccccc1)NC(=O)[C@H](CCCNC(=N)N)NC(=O)[C@H](Cc1c[nH]c2ccccc12)NC(=O)[C@H](CCCNC(=N)N)NC(=O)[C@H](Cc1ccccc1)NC(=O)[C@H](CCCNC(=N)N)NC(=O)[C@H](Cc1c[nH]c2ccccc12)NC(=O)[C@H](CCCNC(=N)N)NC(=O)[C@H](Cc1ccccc1)NC(=O)[C@H](CCCNC(=N)N)NC(=O)[C@@H](N)Cc1c[nH]c2ccccc12)C(N)=O (H-WRFRWRFRWRFR-NH2)	28.6	8 µM (≈ 15.6 µg/mL)	64 µM	4 µM (≈ 7.82 µg/mL)	1 µM (≈ 1.95 µg/mL)	4 µM (≈ 7.82 µg/mL)	2 µM (≈ 3.91 µg/mL)	2 µM (≈ 3.91 µg/mL)	2 µM (≈ 3.91 µg/mL)	8 µM (≈ 15.6 µg/mL)	2 µM (≈ 3.91 µg/mL)	2 µM (≈ 3.91 µg/mL)	> 90%	1 µM (≈ 1.95 µg/mL)
CC[C@H](C)[C@H](NC(=O)[C@H](CCCNC(=N)N)NC(=O)[C@H](Cc1c[nH]c2ccccc12)NC(=O)[C@H](CCCNC(=N)N)NC(=O)[C@@H](NC(=O)[C@H](CCCCN)NC(=O)[C@H](Cc1c[nH]c2ccccc12)NC(=O)[C@H](CCCNC(=N)N)NC(=O)[C@@H](NC(=O)[C@H](CCCNC(=N)N)NC(=O)[C@@H](N)Cc1c[nH]c2ccccc12)[C@@H](C)CC)[C@@H](C)O)C(=O)N[C@@H](CCCCN)C(N)=O (H-WRIRWKTRWRIK-NH2)	114	4 µM (≈ 7.14 µg/mL)	> 128 µM	2 µM (≈ 3.57 µg/mL)	2 µM (≈ 3.57 µg/mL)	2 µM (≈ 3.57 µg/mL)	2 µM (≈ 3.57 µg/mL)	2 µM (≈ 3.57 µg/mL)	2 µM (≈ 3.57 µg/mL)	8 µM (≈ 14.3 µg/mL)	2 µM (≈ 3.57 µg/mL)	2 µM (≈ 3.57 µg/mL)	> 90%	2 µM (≈ 3.57 µg/mL)
CC(C)C[C@H](NC(=O)[C@H](CCCNC(=N)N)NC(=O)[C@H](Cc1c[nH]c2ccccc12)NC(=O)[C@H](CCCNC(=N)N)NC(=O)[C@H](CC(C)C)NC(=O)[C@H](CCCNC(=N)N)NC(=O)[C@H](Cc1c[nH]c2ccccc12)NC(=O)[C@H](CCCNC(=N)N)NC(=O)[C@H](CC(C)C)NC(=O)[C@H](CCCNC(=N)N)NC(=O)[C@@H](N)Cc1c[nH]c2ccccc12)C(=O)N[C@@H](CCCNC(=N)N)C(N)=O (H-WRLRWRLRWRLR-NH2)	128	4 µM (≈ 7.41 µg/mL)	> 128 µM	2 µM (≈ 3.7 µg/mL)	1 µM (≈ 1.85 µg/mL)	2 µM (≈ 3.7 µg/mL)	2 µM (≈ 3.7 µg/mL)	2 µM (≈ 3.7 µg/mL)	2 µM (≈ 3.7 µg/mL)	4 µM (≈ 7.41 µg/mL)	1 µM (≈ 1.85 µg/mL)	4 µM (≈ 7.41 µg/mL)	> 90%	2 µM (≈ 3.7 µg/mL)
CC[C@H]1OC(=O)[C@H](C)[C@@H](O[C@H]2C[C@@](C)(OC)[C@@H](O)[C@H](C)O2)[C@H](C)[C@@H](O[C@@H]2O[C@H](C)C[C@H](N(C)C)[C@H]2O)[C@](C)(O)C[C@@H](C)C(=O)[C@H](C)[C@@H](O)[C@]1(C)O [ERYTHROMYCIN]	–	32 µM (≈ 23.5 µg/mL)	–	32 µM (≈ 23.5 µg/mL)	0.5 µM (≈ 0.367 µg/mL)	64 µM (≈ 47 µg/mL)	0.25 µM (≈ 0.183 µg/mL)	> 128 µM	32 µM (≈ 23.5 µg/mL)	128 µM (≈ 93.9 µg/mL)	1 µM (≈ 0.734 µg/mL)	> 128 µM	–	0.5 µM (≈ 0.367 µg/mL)
CN[C@H](CC(C)C)C(=O)N[C@H]1C(=O)N[C@@H](CC(N)=O)C(=O)N[C@H]2C(=O)N[C@H]3C(=O)N[C@H](C(=O)N[C@H](C(=O)O)c4cc(O)cc(O)c4-c4cc3ccc4O)[C@H](O)c3ccc(c(Cl)c3)Oc3cc2cc(c3O[C@@H]2O[C@H](CO)[C@@H](O)[C@H](O)[C@H]2O[C@H]2C[C@](C)(N)[C@H](O)[C@H](C)O2)Oc2ccc(cc2Cl)[C@H]1O [VANCOMYCIN]	–	128 µM (≈ 186 µg/mL)	–	128 µM (≈ 186 µg/mL)	0.5 µM (≈ 0.725 µg/mL)	64 µM (≈ 92.8 µg/mL)	0.5 µM (≈ 0.725 µg/mL)	> 128 µM	128 µM (≈ 186 µg/mL)	> 128 µM	0.25 µM (≈ 0.362 µg/mL)	> 128 µM	–	0.5 µM (≈ 0.725 µg/mL)
